Assay results reported in ChEMBL document CHEMBL4507294, “Data for DCP probe MSD-CYP11B2” (2021).

Tests used:
Conditions in all cases: Compound concentration 1000.0 nM
[1] = target: Glycogen synthase kinase-3 beta (Homo sapiens) (UniProt P49841)
[2] = system: Mast/stem cell growth factor receptor Kit (Homo sapiens), P10721 [D816H]
[3] = target: MAP kinase-interacting serine/threonine-protein kinase 1 (Homo sapiens) (UniProt Q9BUB5)
[4] = target: Mast/stem cell growth factor receptor Kit (Homo sapiens) (UniProt P10721)
[5] = target: Dual specificity protein kinase CLK4 (Homo sapiens) (UniProt Q9HAZ1)
[6] = target: Activated CDC42 kinase 1 (Homo sapiens) (UniProt Q07912)
[7] = target: Bone morphogenetic protein receptor type-2 (Homo sapiens) (UniProt Q13873)
[8] = target: MAP/microtubule affinity-regulating kinase 3 (Homo sapiens) (UniProt P27448)
[9] = target: Dual serine/threonine and tyrosine protein kinase (Homo sapiens) (UniProt Q6XUX3)
[10] = target: Serine/threonine-protein kinase haspin (Homo sapiens) (UniProt Q8TF76)
[11] = target: Mitogen-activated protein kinase 8 (Homo sapiens) (UniProt P45983)
[12] = target: Tyrosine-protein kinase Lck (Homo sapiens) (UniProt P06239)
[13] = target: Serine/threonine-protein kinase WNK3 (Homo sapiens) (UniProt Q9BYP7)
[14] = target: Calcium/calmodulin-dependent protein kinase type II subunit alpha (Homo sapiens) (UniProt Q9UQM7)
[15] = target: NT-3 growth factor receptor (Homo sapiens) (UniProt Q16288)
[16] = target: Calcium/calmodulin-dependent protein kinase type II subunit beta (Homo sapiens) (UniProt Q13554)
[17] = target: Wee1-like protein kinase (Homo sapiens) (UniProt P30291)
[18] = target: Serine/threonine-protein kinase TBK1 (Homo sapiens) (UniProt Q9UHD2)
[19] = target: Serine/threonine-protein kinase 38 (Homo sapiens) (UniProt Q15208)
[20] = target: Dual specificity mitogen-activated protein kinase kinase 5 (Homo sapiens) (UniProt Q13163)
[21] = target: Serine/threonine-protein kinase pim-1 (Homo sapiens) (UniProt P11309)
[22] = target: Serine/threonine-protein kinase D1 (Homo sapiens) (UniProt Q15139)
[23] = target: Activin receptor type-1-like (Homo sapiens) (UniProt P37023)
[24] = target: Serine/threonine-protein kinase Sgk2 (Homo sapiens) (UniProt Q9HBY8)
[25] = target: Tyrosine-protein kinase JAK1 (Homo sapiens) (UniProt P23458)
[26] = target: Ribosomal protein S6 kinase alpha-3 (Homo sapiens) (UniProt P51812)
[27] = target: Cyclin-dependent kinase 4 (Homo sapiens) (UniProt P11802)
[28] = target: Myotonin-protein kinase (Homo sapiens) (UniProt Q09013)
[29] = target: Calcium/calmodulin-dependent protein kinase type 1G (Homo sapiens) (UniProt Q96NX5)
[30] = target: Serine/threonine-protein kinase 26 (Homo sapiens) (UniProt Q9P289)
[31] = target: Ephrin type-B receptor 4 (Homo sapiens) (UniProt P54760)
[32] = target: 5'-AMP-activated protein kinase catalytic subunit alpha-2 (Homo sapiens) (UniProt P54646)
[33] = target: Serine/threonine-protein kinase SIK3 (Homo sapiens) (UniProt Q9Y2K2)
[34] = target: AP2-associated protein kinase 1 (Homo sapiens) (UniProt Q2M2I8)
[35] = target: Insulin-like growth factor 1 receptor (Homo sapiens) (UniProt P08069)
[36] = target: Ribosomal protein S6 kinase alpha-4 (Homo sapiens) (UniProt O75676)
[37] = target: Testis-specific serine/threonine-protein kinase 1 (Homo sapiens) (UniProt Q9BXA7)
[38] = target: Calcium-dependent protein kinase 1 (Plasmodium falciparum) (UniProt P62344)
[39] = target: MAP/microtubule affinity-regulating kinase 4 (Homo sapiens) (UniProt Q96L34)
[40] = target: Dual specificity mitogen-activated protein kinase kinase 7 (Homo sapiens) (UniProt O14733)
[41] = target: Angiopoietin-1 receptor (Homo sapiens) (UniProt Q02763)
[42] = target: Serine/threonine-protein kinase MRCK gamma (Homo sapiens) (UniProt Q6DT37)
[43] = target: Myosin-IIIb (Homo sapiens) (UniProt Q8WXR4)
[44] = target: Ephrin type-B receptor 6 (Homo sapiens) (UniProt O15197)
[45] = target: Atypical kinase COQ8B, mitochondrial (Homo sapiens) (UniProt Q96D53)

Measured: residual activity

Sequence of Calcium-dependent protein kinase 1 (Plasmodium falciparum) (P62344 2-524 limits assumed): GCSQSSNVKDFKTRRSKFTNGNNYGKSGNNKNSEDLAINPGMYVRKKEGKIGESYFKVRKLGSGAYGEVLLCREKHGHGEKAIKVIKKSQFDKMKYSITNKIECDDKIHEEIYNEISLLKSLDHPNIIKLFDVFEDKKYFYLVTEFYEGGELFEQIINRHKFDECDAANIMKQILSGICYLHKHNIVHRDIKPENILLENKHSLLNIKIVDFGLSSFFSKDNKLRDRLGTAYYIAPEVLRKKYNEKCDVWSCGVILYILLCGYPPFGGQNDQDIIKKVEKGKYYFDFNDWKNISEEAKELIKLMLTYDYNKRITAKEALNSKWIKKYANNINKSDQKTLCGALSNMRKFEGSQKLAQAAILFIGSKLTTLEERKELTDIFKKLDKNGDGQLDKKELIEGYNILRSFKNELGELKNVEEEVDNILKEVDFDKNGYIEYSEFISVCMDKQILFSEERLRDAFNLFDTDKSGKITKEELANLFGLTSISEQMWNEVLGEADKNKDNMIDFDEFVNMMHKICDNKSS
Sequence of MAP/microtubule affinity-regulating kinase 4 (Homo sapiens) (Q96L34 whole entry): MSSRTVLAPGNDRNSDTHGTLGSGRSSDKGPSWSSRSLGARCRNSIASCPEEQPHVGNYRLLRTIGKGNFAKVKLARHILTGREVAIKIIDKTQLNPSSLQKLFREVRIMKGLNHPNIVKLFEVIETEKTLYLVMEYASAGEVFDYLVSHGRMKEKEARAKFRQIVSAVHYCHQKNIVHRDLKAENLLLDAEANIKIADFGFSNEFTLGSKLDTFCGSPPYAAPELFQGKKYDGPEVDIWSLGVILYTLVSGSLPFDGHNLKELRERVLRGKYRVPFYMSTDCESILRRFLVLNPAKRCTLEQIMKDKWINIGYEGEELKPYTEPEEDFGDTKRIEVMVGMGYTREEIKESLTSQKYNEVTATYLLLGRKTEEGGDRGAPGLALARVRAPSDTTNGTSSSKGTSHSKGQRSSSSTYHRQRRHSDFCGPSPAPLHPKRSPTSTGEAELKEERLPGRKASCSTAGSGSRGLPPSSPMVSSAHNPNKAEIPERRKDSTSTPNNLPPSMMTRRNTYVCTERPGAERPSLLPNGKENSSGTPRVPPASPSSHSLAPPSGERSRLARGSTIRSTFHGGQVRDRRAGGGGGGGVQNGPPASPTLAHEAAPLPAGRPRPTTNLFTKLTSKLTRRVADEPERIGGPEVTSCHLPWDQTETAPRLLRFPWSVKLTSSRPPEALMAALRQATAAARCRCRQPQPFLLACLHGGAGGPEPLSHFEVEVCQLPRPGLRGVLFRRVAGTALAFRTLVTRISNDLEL
Sequence of Serine/threonine-protein kinase TBK1 (Homo sapiens) (Q9UHD2 whole entry): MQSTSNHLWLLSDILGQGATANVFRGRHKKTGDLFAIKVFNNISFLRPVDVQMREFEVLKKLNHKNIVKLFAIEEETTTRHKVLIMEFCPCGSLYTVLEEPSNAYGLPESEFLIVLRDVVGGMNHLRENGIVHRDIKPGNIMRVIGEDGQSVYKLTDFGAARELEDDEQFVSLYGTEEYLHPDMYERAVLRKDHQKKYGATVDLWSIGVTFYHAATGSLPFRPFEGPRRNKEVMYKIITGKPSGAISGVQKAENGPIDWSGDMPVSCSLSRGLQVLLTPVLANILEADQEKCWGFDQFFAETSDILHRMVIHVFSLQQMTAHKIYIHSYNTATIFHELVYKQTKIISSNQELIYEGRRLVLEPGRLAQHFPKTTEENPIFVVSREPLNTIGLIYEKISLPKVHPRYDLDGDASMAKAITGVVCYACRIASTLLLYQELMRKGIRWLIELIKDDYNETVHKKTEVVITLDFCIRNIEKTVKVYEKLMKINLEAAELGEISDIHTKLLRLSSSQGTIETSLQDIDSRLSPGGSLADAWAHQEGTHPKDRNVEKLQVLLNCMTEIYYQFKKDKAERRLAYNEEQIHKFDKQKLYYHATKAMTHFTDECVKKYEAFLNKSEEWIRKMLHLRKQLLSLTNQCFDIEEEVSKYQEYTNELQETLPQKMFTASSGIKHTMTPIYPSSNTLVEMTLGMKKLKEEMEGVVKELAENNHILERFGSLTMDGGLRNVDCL
Sequence of AP2-associated protein kinase 1 (Homo sapiens) (Q2M2I8 whole entry, looked up): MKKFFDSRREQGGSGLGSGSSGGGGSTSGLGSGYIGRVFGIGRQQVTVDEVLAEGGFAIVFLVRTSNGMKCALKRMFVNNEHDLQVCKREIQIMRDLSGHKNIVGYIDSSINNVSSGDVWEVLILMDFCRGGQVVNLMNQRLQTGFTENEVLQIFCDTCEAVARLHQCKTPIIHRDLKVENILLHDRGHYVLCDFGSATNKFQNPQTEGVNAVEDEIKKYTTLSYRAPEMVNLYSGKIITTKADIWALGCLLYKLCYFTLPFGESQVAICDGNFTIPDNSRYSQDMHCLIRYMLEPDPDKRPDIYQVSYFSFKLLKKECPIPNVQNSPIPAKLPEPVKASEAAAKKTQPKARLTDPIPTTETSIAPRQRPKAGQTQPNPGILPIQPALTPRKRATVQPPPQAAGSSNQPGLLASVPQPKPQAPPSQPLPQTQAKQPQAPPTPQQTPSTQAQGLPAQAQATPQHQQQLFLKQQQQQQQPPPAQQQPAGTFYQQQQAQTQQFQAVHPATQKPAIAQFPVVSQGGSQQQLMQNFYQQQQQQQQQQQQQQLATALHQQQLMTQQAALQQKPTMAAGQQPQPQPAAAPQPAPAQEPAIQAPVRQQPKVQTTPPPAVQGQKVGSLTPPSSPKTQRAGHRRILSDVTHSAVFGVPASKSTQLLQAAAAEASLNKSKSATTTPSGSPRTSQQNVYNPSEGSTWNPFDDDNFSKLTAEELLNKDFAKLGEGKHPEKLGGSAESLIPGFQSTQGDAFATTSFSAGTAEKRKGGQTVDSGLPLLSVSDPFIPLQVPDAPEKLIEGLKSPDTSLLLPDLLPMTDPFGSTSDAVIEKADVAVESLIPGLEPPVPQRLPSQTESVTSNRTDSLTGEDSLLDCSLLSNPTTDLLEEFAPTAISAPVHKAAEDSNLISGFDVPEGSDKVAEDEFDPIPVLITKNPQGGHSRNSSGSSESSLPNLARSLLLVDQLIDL
Sequence of Activin receptor type-1-like (Homo sapiens) (P37023 whole entry): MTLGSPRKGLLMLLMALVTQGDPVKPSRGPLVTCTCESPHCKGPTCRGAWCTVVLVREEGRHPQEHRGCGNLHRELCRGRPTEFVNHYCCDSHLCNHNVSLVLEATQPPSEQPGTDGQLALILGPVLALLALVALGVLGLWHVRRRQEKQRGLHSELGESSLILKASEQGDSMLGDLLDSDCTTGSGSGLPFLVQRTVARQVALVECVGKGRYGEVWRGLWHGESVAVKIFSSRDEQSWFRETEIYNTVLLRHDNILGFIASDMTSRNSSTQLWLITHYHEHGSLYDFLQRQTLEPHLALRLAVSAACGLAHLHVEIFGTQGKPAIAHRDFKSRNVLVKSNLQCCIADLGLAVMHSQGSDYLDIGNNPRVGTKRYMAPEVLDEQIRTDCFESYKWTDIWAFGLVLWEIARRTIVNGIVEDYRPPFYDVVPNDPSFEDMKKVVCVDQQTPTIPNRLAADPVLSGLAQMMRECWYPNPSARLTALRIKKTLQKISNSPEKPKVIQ
Sequence of Ribosomal protein S6 kinase alpha-3 (Homo sapiens) (P51812 whole entry): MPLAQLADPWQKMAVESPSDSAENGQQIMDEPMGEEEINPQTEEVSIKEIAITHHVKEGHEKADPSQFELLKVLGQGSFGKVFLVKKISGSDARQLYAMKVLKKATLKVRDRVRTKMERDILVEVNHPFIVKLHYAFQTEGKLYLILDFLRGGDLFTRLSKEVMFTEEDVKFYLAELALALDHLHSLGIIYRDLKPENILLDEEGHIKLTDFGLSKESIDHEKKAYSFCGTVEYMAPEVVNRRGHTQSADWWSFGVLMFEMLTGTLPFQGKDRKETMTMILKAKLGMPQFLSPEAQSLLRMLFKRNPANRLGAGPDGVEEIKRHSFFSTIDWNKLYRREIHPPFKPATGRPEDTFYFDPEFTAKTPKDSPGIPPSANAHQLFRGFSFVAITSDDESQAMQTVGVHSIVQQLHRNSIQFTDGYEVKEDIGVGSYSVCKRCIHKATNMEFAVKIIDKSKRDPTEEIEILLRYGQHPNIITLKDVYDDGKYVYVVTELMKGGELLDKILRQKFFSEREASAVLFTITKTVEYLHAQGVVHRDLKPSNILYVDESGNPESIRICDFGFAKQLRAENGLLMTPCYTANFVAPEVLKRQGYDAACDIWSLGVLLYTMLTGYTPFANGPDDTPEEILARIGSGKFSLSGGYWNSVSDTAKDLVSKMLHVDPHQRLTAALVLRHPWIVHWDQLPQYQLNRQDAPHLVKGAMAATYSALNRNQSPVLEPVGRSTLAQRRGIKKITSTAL
Sequence of Myotonin-protein kinase (Homo sapiens) (Q09013 whole entry): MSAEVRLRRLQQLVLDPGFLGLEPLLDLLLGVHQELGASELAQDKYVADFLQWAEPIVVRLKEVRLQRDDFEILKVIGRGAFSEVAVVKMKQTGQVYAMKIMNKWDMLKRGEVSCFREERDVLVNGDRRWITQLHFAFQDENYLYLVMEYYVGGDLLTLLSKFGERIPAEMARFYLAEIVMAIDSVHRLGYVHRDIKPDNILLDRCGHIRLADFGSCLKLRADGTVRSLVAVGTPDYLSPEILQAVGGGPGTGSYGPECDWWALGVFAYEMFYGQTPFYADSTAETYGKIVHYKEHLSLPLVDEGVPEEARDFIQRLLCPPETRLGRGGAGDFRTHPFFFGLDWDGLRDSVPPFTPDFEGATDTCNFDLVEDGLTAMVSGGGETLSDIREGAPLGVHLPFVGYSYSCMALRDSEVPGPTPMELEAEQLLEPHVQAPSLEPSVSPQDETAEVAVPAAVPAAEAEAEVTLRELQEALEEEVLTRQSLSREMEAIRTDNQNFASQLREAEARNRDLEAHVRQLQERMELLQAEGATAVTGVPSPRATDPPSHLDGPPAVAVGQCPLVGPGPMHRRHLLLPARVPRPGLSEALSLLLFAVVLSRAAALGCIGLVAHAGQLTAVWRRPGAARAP

CC(C)(O)c1cncc(-c2nc3ccc(F)cc3n2C2CC2)c1 [MSD-CYP11B2]
inactive: [1] 100% | [2] 100% | [3] 100% | [4] 86% | [5] 54% | [6] 100% | [7] 100% | [8] 100% | [9] 100% | [10] 83% | [11] 100% | [12] 100% | [13] 100% | [14] 94% | [15] 100% | [16] 100% | [17] 72% | [18] 72% | [19] 99% | [20] 100% | [21] 92% | [22] 100% | [23] 100% | [24] 100% | [25] 80% | [26] 69% | [27] 100% | [28] 71% | [29] 100% | [30] 100% | [31] 100% | [32] 100% | [33] 97% | [34] 100% | [35] 100% | [36] 91% | [37] 97% | [38] 100% | [39] 100% | [40] 100% | [41] 93% | [42] 100% | [43] 71% | [44] 100% | [45] 100%

FC(F)(F)c1ccc2c(c1)nc(-c1cccnc1)n2C1CC1 [MSD-CYP11B2-Negative-control]
inactive: [1] 100% | [2] 100% | [3] 100% | [4] 85% | [5] 100% | [6] 100% | [7] 100% | [8] 100% | [9] 100% | [10] 96% | [11] 93% | [12] 100% | [13] 100% | [14] 88% | [15] 100% | [16] 100% | [17] 93% | [18] 82% | [19] 93% | [20] 96% | [21] 94% | [22] 100% | [23] 100% | [24] 100% | [25] 85% | [26] 71% | [27] 100% | [28] 92% | [29] 100% | [30] 100% | [31] 100% | [32] 100% | [33] 100% | [34] 100% | [35] 100% | [36] 99% | [37] 100% | [38] 100% | [39] 100% | [40] 100% | [41] 100% | [42] 100% | [43] 67% | [44] 100% | [45] 100%
